Measurements from PubChem BioAssay AID1963976 (Molecular Pharmacology Branch, DTP, NCI, 2024).
Where “and” joins values, the source holds several entries; their conditions need not be identical. Identical values can stand only once.

Test system: 435261-313-R-J1-PDC tumor spheroid viability
Test: Anticancer human tumor 435261-313-R-J1-PDC patient-derived colon adenocarcinoma cell line growth inhibition [PI3K]
Conditions: spheroids with HUVEC and MSC; for viability, T/C: stronger effect = lower value
Summary of the method: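 We assembled tumor spheroids that included a stromal compartment of HUVEC and MSCs, then exposed them to targeted agents alone and together with PI3K pathway inhibitors. Concentration series descended by half-log from clinically achievable Cmax levels. Viability served as the endpoint.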

[1] = curve of first compound, second compound 0.00316 µM
[2] = curve of first compound, second compound 0.01 µM
[3] = curve of first compound, second compound 0.0316 µM
[4] = curve of first compound, second compound 0.1 µM
[5] = curve of first compound, second compound 0.316 µM
[6] = curve of first compound, second compound 1 µM
[7] = second compound 0.00316 µM, first compound 0.0316 µM
[8] = second compound 0.00316 µM, first compound 0.1 µM
[9] = second compound 0.00316 µM, first compound 0.316 µM
[10] = second compound 0.00316 µM, first compound 1 µM
[11] = second compound 0.00316 µM, first compound 3.16 µM
[12] = second compound 0.00316 µM, first compound 10 µM
[13] = second compound 0.01 µM, first compound 0.0316 µM
[14] = second compound 0.01 µM, first compound 0.1 µM
[15] = second compound 0.01 µM, first compound 0.316 µM
[16] = second compound 0.01 µM, first compound 1 µM
[17] = second compound 0.01 µM, first compound 3.16 µM
[18] = second compound 0.01 µM, first compound 10 µM
[19] = second compound 0.0316 µM, first compound 0.0316 µM
[20] = second compound 0.0316 µM, first compound 0.1 µM
[21] = second compound 0.0316 µM, first compound 0.316 µM
[22] = second compound 0.0316 µM, first compound 1 µM
[23] = second compound 0.0316 µM, first compound 3.16 µM
[24] = second compound 0.0316 µM, first compound 10 µM
[25] = second compound 0.1 µM, first compound 0.0316 µM
[26] = second compound 0.1 µM, first compound 0.1 µM
[27] = second compound 0.1 µM, first compound 0.316 µM
[28] = second compound 0.1 µM, first compound 1 µM
[29] = second compound 0.1 µM, first compound 3.16 µM
[30] = second compound 0.1 µM, first compound 10 µM
[31] = second compound 0.316 µM, first compound 0.0316 µM
[32] = second compound 0.316 µM, first compound 0.1 µM
[33] = second compound 0.316 µM, first compound 0.316 µM
[34] = second compound 0.316 µM, first compound 1 µM
[35] = second compound 0.316 µM, first compound 3.16 µM
[36] = second compound 0.316 µM, first compound 10 µM
[37] = second compound 1 µM, first compound 0.0316 µM
[38] = second compound 1 µM, first compound 0.1 µM
[39] = second compound 1 µM, first compound 0.316 µM
[40] = second compound 1 µM, first compound 1 µM
[41] = second compound 1 µM, first compound 3.16 µM
[42] = second compound 1 µM, first compound 10 µM

In the case of `CNC(=O)c1ccc(N2C(=S)N(c3ccc(C#N)c(C(F)(F)F)c3)C(=O)C2(C)C)cc1F` + COc1c(OCCCN2CCOCC2)ccc2c3n(c(=NC(=O)c4cnc(N)nc4)nc12)CCN3, the IC50 [1] is reported as 8990 nM, the IC50 [2] is reported as < 31.6 nM and the IC50 [3] is reported as < 31.6 nM. The IC50 [4] was < 31.6 nM, the IC50 [5] was < 31.6 nM and the IC50 [6] was < 31.6 nM. For the same compound, the viability, T/C [7] was 71.2%, the viability, T/C [8] was 80.3% and the viability, T/C [9] was 40.8%. It also gave a viability, T/C [10] of 63.6%, a viability, T/C [11] of 66.3% and a viability, T/C [12] of 42.7%. It also gave a viability, T/C [13] of 33.4%, a viability, T/C [14] of 46.7% and a viability, T/C [15] of 51.3%. The viability, T/C [16] was 48.2%, the viability, T/C [17] was 45.4% and the viability, T/C [18] was 39.7%. It also gave a viability, T/C [19] of 33.8%, a viability, T/C [20] of 29.1% and a viability, T/C [21] of 29.9%. The viability, T/C [22] was 27.3%, the viability, T/C [23] was 23% and the viability, T/C [24] was 22.4%. It also gave a viability, T/C [25] of 16.1%, a viability, T/C [26] of 13.9% and a viability, T/C [27] of 14.9%. The viability, T/C [28] was 15%, the viability, T/C [29] was 15.4% and the viability, T/C [30] was 15.3%. It also gave a viability, T/C [31] of 8.96%, a viability, T/C [32] of 8.69% and a viability, T/C [33] of 7.55%. For the same compound, the viability, T/C [34] was 9.53%, the viability, T/C [35] was 7.67% and the viability, T/C [36] was 8.88%. For the same compound, the viability, T/C [37] was 4.12%, the viability, T/C [38] was 4.26% and the viability, T/C [39] was 4.87%. It also gave a viability, T/C [40] of 4.38%, a viability, T/C [41] of 5.02% and a viability, T/C [42] of 5.37%.
For `C=CC(=O)N1CCN(c2nc(=O)n(-c3c(C)ccnc3C(C)C)c3nc(-c4c(O)cccc4F)c(F)cc23)C(C)C1` (configuration not stated) + COc1c(OCCCN2CCOCC2)ccc2c3n(c(=NC(=O)c4cnc(N)nc4)nc12)CCN3, the IC50 [1] was > 10000 nM, the IC50 [2] was < 31.6 nM and the IC50 [3] was < 31.6 nM. The IC50 [4] was < 31.6 nM, the IC50 [5] was < 31.6 nM and the IC50 [6] was < 31.6 nM. It also gave a viability, T/C [7] of 86.8%, a viability, T/C [8] of 78.2% and a viability, T/C [9] of 99%. For the same compound, the viability, T/C [10] was 63.5%, the viability, T/C [11] was 101% and the viability, T/C [12] was 97.9%. It also gave a viability, T/C [13] of 45.5%, a viability, T/C [14] of 56.6% and a viability, T/C [15] of 47.7%. The viability, T/C [16] was 64.7%, the viability, T/C [17] was 60.2% and the viability, T/C [18] was 85%. The viability, T/C [19] was 25.5%, the viability, T/C [20] was 36.7% and the viability, T/C [21] was 29%. The viability, T/C [22] was 30.6%, the viability, T/C [23] was 26.3% and the viability, T/C [24] was 30.6%. For the same compound, the viability, T/C [25] was 15.9%, the viability, T/C [26] was 16.5% and the viability, T/C [27] was 17.5%. It also gave a viability, T/C [28] of 18.7%, a viability, T/C [29] of 15.4% and a viability, T/C [30] of 16.1%. For the same compound, the viability, T/C [31] was 8.2%, the viability, T/C [32] was 8.82% and the viability, T/C [33] was 7.92%. For the same compound, the viability, T/C [34] was 8.17%, the viability, T/C [35] was 6.9% and the viability, T/C [36] was 5.27%. For the same compound, the viability, T/C [37] was 4.55%, the viability, T/C [38] was 3.78% and the viability, T/C [39] was 3.56%. For the same compound, the viability, T/C [40] was 3.98%, the viability, T/C [41] was 3.29% and the viability, T/C [42] was 2.04%.
`Cn1ncnc1[C@H]1c2n[nH]c(=O)c3cc(F)cc(c23)N[C@@H]1c1ccc(F)cc1` was tested, and the viability, T/C (compound 0.00316 µM) was 93.3% and 79.8% (2×) and 89.1%, the viability, T/C (compound 0.1 µM) was 62.6% [middle of 4 runs] and the IC50 (curve of compound) was > 100 nM.
